Reference: patent US20160361444A1, “USE OF IVABRADINE AS DIAGNOSTIC AGENT IN THE METHOD OF CORONARY ANGIOGRAPHY BY MULTISLICE COMPUTED TOMOGRAPHY” (LES LABORATOIRES SERVIER, priority 2008, published 2016)

Test: Clinical study: effect of i.v. administration of ivabradine hydrochloride on heart rate in healthy volunteers
Type: in vivo
Details: i.v. bolus of ivabradine hydrochloride solution containing 16 mg ivabradine base, resting heart rate (lying position) at T0+30 min, vs placebo control group
Protocol: Clinical Study. Effect of i.v. Administration of Ivabradine Hydrochloride on Heart Rate in Healthy Volunteers.
Resting heart rate (in a lying position) is measured at T0. The subjects are then given an i.v. bolus of a solution of ivabradine hydrochloride containing 16 mg of ivabradine base (treated group, n=8) or of placebo (control group, n=2). The resting heart rate (in a lying position) is again measured at T0+30 min.

## COc1cc2c(cc1OC)CC(=O)N(CCCN(C)C[C@H]1Cc3cc(OC)c(OC)cc31)CC2 [ivabradine]
  heart rate lower than the heart rate in the control group: 16%
